We go through 24 molecules from PubChem BioAssay AID248 (DTP/NCI, 2004).

This assay concerns L1210 leukemia ip in BDF1 mice, survival T/C. As to the kind of experiment: NCI In Vivo Anticancer Drug Screen. Data for tumor model L1210 Leukemia (intraperitoneal) in B6D2F1 (BDF1) mice. Conditions: endpoint: mean survival time, higher = longer survival. In outline: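 Mice bearing the transplanted tumor received compound or vehicle. Survival of the treated group was divided by that of the vehicle-treated control group to give the ratio.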

[1] abbreviates: dose: 50.0 mg/kg/injection, schedule: Q04DX002 (ip), vehicle: other.
The mark [2] stands for this setting: dose: 100.0 mg/kg/injection, schedule: Q04DX002 (ip), vehicle: other.
The mark [3] stands for this setting: dose: 200.0 mg/kg/injection, schedule: Q04DX002 (ip), vehicle: other.
Where [4] appears, read: dose: 100.0 mg/kg/injection, schedule: Q01DX001 (ip), vehicle: saline.
The mark [5] stands for this setting: dose: 200.0 mg/kg/injection, schedule: Q01DX001 (ip), vehicle: saline.
[6] abbreviates: dose: 400.0 mg/kg/injection, schedule: Q01DX001 (ip), vehicle: saline.
[7] abbreviates: dose: 50.0 mg/kg/injection, schedule: Q01DX001 (ip), vehicle: saline.
Where [8] appears, read: dose: 100.0 mg/kg/injection, schedule: Q04DX003 (ip), vehicle: saline.
Where [9] appears, read: dose: 100.0 mg/kg/injection, schedule: Q01DX009 (ip), vehicle: saline with Tween-80.
[10] abbreviates: dose: 200.0 mg/kg/injection, schedule: Q01DX009 (ip), vehicle: saline with Tween-80.
[11] abbreviates: dose: 100.0 mg/kg/injection, schedule: Q04DX003 (ip), vehicle: saline with Tween-80.
The mark [12] stands for this setting: dose: 200.0 mg/kg/injection, schedule: Q04DX003 (ip), vehicle: saline with Tween-80.
The mark [13] stands for this setting: dose: 400.0 mg/kg/injection, schedule: Q04DX003 (ip), vehicle: saline with Tween-80.
The mark [14] stands for this setting: dose: 100.0 mg/kg/injection, schedule: Q04DX003 (ip), vehicle: Klucel (hydroxypropylcellulose) (HPC).
The mark [15] stands for this setting: dose: 200.0 mg/kg/injection, schedule: Q04DX003 (ip), vehicle: Klucel (hydroxypropylcellulose) (HPC).
Where [16] appears, read: dose: 400.0 mg/kg/injection, schedule: Q04DX003 (ip), vehicle: Klucel (hydroxypropylcellulose) (HPC).

The structures appear in SMILES notation. Values joined by “and” are separate entries in the source; they are usually repeats but may differ in a detail not shown here. Equal values may be shown once. Inconclusive results and toxic doses are left out.

In the case of `O=C1CCCCC1c1ccccc1` (configuration not stated), the T/C reads like this: under setting [1], 99 % of control; under setting [2], 92 % of control; (dose: 100.0 mg/kg/injection, schedule: Q04DX003 (ip), vehicle: other) 96 % of control; under setting [3], 108 % of control; (dose: 200.0 mg/kg/injection, schedule: Q04DX003 (ip), vehicle: other) 95 % of control; (dose: 400.0 mg/kg/injection, schedule: Q04DX002 (ip), vehicle: other) 99 % of control. For the same molecule, the T/C (dose: 400.0 mg/kg/injection, schedule: Q04DX003 (ip), vehicle: other) was 98 % of control.
Consider `C=CCNC(=O)SCCC(=O)O`, for which the T/C under setting [4] is 93 % of control, the T/C under setting [5] is 100 % of control and the T/C under setting [6] is 102 % of control.
As for `COc1cc2c(cc1O)C(CCc1cc(OC)c(OC)c(OC)c1)=[N+](C)CC2`, the T/C reads like this: (dose: 25.0 mg/kg/injection, schedule: Q04DX002 (ip), vehicle: Klucel (hydroxypropylcellulose) (HPC)) 101 % of control; (dose: 50.0 mg/kg/injection, schedule: Q04DX002 (ip), vehicle: Klucel (hydroxypropylcellulose) (HPC)) 101 % of control; (dose: 100.0 mg/kg/injection, schedule: Q04DX002 (ip), vehicle: Klucel (hydroxypropylcellulose) (HPC)) 105 % of control.
For the molecule `O=C1CCCC(=O)NNC(=O)Nc2ccccc2NC(=O)NN1`, the T/C under setting [7] was 102 % of control, the T/C under setting [4] is 90 % of control, the T/C under setting [5] is 96 % of control and the T/C under setting [6] is 96 % of control.
`CCC(C)C(CC(=O)O)C(=O)O` (configuration not stated): the T/C is 97 % of control under setting [8]; 94 % of control (dose: 200.0 mg/kg/injection, schedule: Q04DX003 (ip), vehicle: saline); 92 % of control (dose: 400.0 mg/kg/injection, schedule: Q04DX003 (ip), vehicle: saline).
Consider `CC(C)(C)C1CCC2(CC1)CO2` (configuration not stated), for which the T/C under setting [4] was 98 % of control.
Turning to `COC1NC(=O)NC(=O)C1=[N+]=[N-]` (configuration not stated), the T/C runs as follows: (dose: 5.0 mg/kg/injection, schedule: Q04DX003 (ip), vehicle: saline with Tween-80) 115 % of control; (dose: 6.6 mg/kg/injection, schedule: Q01DX009 (ip), vehicle: saline with Tween-80) 150 % of control; (dose: 10.0 mg/kg/injection, schedule: Q01DX009 (ip), vehicle: saline with Tween-80) 170 % of control; (dose: 10.0 mg/kg/injection, schedule: Q04DX003 (ip), vehicle: saline with Tween-80) 118 % of control; (dose: 15.0 mg/kg/injection, schedule: Q01DX009 (ip), vehicle: saline with Tween-80) 163 % of control.
As for `CCOC(=N)c1ccc(C(=O)OCCOC)cc1`, the T/C under setting [4] was 97 % of control, the T/C under setting [5] is 97 % of control and the T/C under setting [6] is 97 % of control.
On to `Cc1cccc(C)c1SSc1c(C)cccc1C`, for which the T/C was 96 % of control under setting [1], 108 % of control under setting [2] and 101 % of control under setting [3].
Regarding `[B]N1C(C)=CC=CC1C` (configuration not stated), the T/C reads like this: (dose: 50.0 mg/kg/injection, schedule: Q01DX009 (ip), vehicle: saline with Tween-80) 92 % of control; under setting [9], 92 % of control; under setting [10], 89 % of control.
For the molecule `c1ccc2c(c1)C(=C1c3ccccc3-c3ccccc31)c1ccccc1-2`, the T/C reads like this: (dose: 100.0 mg/kg/injection, schedule: Q01DX001 (ip), vehicle: Klucel (hydroxypropylcellulose) (HPC)) 104 % of control; (dose: 200.0 mg/kg/injection, schedule: Q01DX001 (ip), vehicle: Klucel (hydroxypropylcellulose) (HPC)) 96 % of control.
Regarding `OC1CCCC/C1=C/C=C/c1ccccc1` (configuration not stated), the T/C is 89 % of control and 97 % of control under setting [11]; 92 % of control under setting [12]; 90 % of control and 94 % of control under setting [13].
For `C[N+](C)(C)CCC[N+]1(C)Cc2ccccc2C1`, the T/C was 91 % of control (dose: 55.0 mg/kg/injection, schedule: Q01DX Z (ip), vehicle: saline); 97 % of control (dose: 83.0 mg/kg/injection, schedule: Q01DX Z (ip), vehicle: saline); 96 % of control (dose: 125.0 mg/kg/injection, schedule: Q01DX Z (ip), vehicle: saline).
For the molecule `O=Cc1occ(-c2ccccc2)c1-c1ccccc1`, the T/C under setting [14] was 94 % of control, the T/C under setting [15] was 97 % of control and the T/C under setting [16] was 98 % of control.
Consider `N/C(=N/N=C/c1ccc(O)cc1)N[N+](=O)[O-]`, for which the T/C was 105 % of control under setting [9]; 89 % of control under setting [10]; 90 % of control (dose: 400.0 mg/kg/injection, schedule: Q01DX009 (ip), vehicle: saline with Tween-80).
As to `CC(=O)Nc1nc2[nH]ccc2c(=O)[nH]1`, the T/C is 106 % of control (dose: 75.0 mg/kg/injection, schedule: Q01DX001 (ip), vehicle: other); 104 % of control (dose: 150.0 mg/kg/injection, schedule: Q01DX001 (ip), vehicle: other); 103 % of control (dose: 300.0 mg/kg/injection, schedule: Q01DX001 (ip), vehicle: other).
For the molecule `C=C(Nc1ccc2ccccc2c1)S(=O)(=O)O`, the T/C is 94 % of control (dose: 100.0 mg/kg/injection, schedule: Q01DX009 (ip), vehicle: Klucel (hydroxypropylcellulose) (HPC)); 103 % of control (dose: 200.0 mg/kg/injection, schedule: Q01DX009 (ip), vehicle: Klucel (hydroxypropylcellulose) (HPC)); 96 % of control (dose: 400.0 mg/kg/injection, schedule: Q01DX009 (ip), vehicle: Klucel (hydroxypropylcellulose) (HPC)).
In the case of `Cc1ccc(S(=O)(=O)CC(=O)NC(C)C)cc1`, the T/C under setting [11] is 100 % of control, the T/C under setting [12] was 110 % of control and the T/C under setting [13] was 97 % of control.
On to `Nc1[nH]c(=S)ncc1-c1ccc(Cl)c(Cl)c1`, for which the T/C is, setting by setting: under setting [14], 101 % of control; under setting [15], 97 % of control; under setting [16], 93 % of control.
Take `CN(C=O)c1ccc(C(=O)NC(CC(=O)O)CC(=O)O)cc1`: the T/C by setting is: under setting [4], 111 % of control; under setting [5], 94 % of control; under setting [6], 103 % of control.
`CC(=O)Nc1cccc(OCc2cccc([N+](=O)[O-])c2)c1`: the T/C runs as follows: (dose: 100.0 mg/kg/injection, schedule: Q01DX001 (ip), vehicle: carboxymethylcellulose (CMC)) 97 % of control; (dose: 200.0 mg/kg/injection, schedule: Q01DX001 (ip), vehicle: carboxymethylcellulose (CMC)) 92 % of control; (dose: 400.0 mg/kg/injection, schedule: Q01DX001 (ip), vehicle: carboxymethylcellulose (CMC)) 108 % of control.
On to `COC1OC(CCl)C(OC(=O)c2ccccc2)C(OC(=O)c2ccccc2)C1OS(=O)(=O)c1ccc(C)cc1` (configuration not stated), for which the T/C is 87 % of control (dose: 75.0 mg/kg/injection, schedule: Q04DX002 (ip), vehicle: Klucel (hydroxypropylcellulose) (HPC)); 87 % of control (dose: 150.0 mg/kg/injection, schedule: Q04DX002 (ip), vehicle: Klucel (hydroxypropylcellulose) (HPC)); 97 % of control (dose: 300.0 mg/kg/injection, schedule: Q04DX002 (ip), vehicle: Klucel (hydroxypropylcellulose) (HPC)).
As to `O=C(O)C1C=CCC2C(=O)OC(=O)C12` (configuration not stated), the T/C is 102 % of control (dose: 75.0 mg/kg/injection, schedule: Q01DX001 (ip), vehicle: saline); 102 % of control (dose: 150.0 mg/kg/injection, schedule: Q01DX001 (ip), vehicle: saline); 96 % of control (dose: 300.0 mg/kg/injection, schedule: Q01DX001 (ip), vehicle: saline).
Regarding `NC(CCl)=NCc1ccccc1`, the T/C was 97 % of control and 98 % of control (dose: 6.25 mg/kg/injection, schedule: Q01DX009 (ip), vehicle: saline); 101 % of control and 115 % of control (dose: 12.5 mg/kg/injection, schedule: Q01DX009 (ip), vehicle: saline); 98 % of control (dose: 25.0 mg/kg/injection, schedule: Q01DX001 (ip), vehicle: saline); 105 % of control and 91 % of control (dose: 25.0 mg/kg/injection, schedule: Q04DX002 (ip), vehicle: saline); 90 % of control (dose: 25.0 mg/kg/injection, schedule: Q04DX003 (ip), vehicle: saline); 97 % of control under setting [7]. In addition, the T/C by setting is: (dose: 50.0 mg/kg/injection, schedule: Q04DX002 (ip), vehicle: saline) 94 % of control and 89 % of control; (dose: 50.0 mg/kg/injection, schedule: Q04DX003 (ip), vehicle: saline) 97 % of control; under setting [8], 95 % of control.
